Laboratory results published in ChEMBL document CHEMBL4680175, “Sulfonamide-based ring-fused analogues for CAN508 as novel carbonic anhydrase inhibitors endowed with antitumor activity: Design, synthesis, and in vitro biological evaluation” (Eur J Med Chem, 2020).

What was measured:
Carbonic anhydrase 9 = Carbonic anhydrase 9 (Homo sapiens, UniProt Q16790); assay: Inhibition of recombinant human carbonic anhydrase 9 preincubated with enzyme for 15 mins by phenol red dye based stopped flow CO2 hydrase assay
CDK9/cyclin T1 = CDK9/cyclin T1 (Homo sapiens, UniProt P50750); assay: Inhibition of human full-length N-terminal GST/His6-tagged CDK9 (1 to 372 residues)/His6-tagged Cyclin-T1 (1 to 726 residues) expressed in sf9 cells using (YSPTSPS)2KK peptide as substrate in presence of [gamma33P]ATP
CDK9/cyclin T1, sequence (O60563 whole entry, the tested form may be a part): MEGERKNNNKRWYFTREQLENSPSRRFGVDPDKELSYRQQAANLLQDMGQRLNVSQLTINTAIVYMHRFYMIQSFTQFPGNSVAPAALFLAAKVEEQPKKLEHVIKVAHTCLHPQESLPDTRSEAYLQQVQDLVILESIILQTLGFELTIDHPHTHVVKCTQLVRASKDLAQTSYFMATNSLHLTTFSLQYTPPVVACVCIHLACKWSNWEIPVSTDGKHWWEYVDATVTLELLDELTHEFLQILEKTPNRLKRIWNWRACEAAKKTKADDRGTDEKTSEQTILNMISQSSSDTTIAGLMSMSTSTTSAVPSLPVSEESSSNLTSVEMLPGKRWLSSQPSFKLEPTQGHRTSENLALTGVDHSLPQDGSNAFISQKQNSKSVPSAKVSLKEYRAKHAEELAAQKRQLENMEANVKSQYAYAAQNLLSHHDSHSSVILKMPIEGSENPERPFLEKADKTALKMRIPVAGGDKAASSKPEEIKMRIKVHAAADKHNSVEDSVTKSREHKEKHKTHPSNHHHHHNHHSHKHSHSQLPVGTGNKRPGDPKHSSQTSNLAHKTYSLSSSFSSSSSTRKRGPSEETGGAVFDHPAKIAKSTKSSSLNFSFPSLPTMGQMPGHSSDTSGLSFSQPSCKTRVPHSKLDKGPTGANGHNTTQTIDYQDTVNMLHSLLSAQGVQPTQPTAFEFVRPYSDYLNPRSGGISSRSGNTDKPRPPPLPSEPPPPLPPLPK
CDK9/cyclin T1, sequence (P50750 whole entry, the tested form may be a part): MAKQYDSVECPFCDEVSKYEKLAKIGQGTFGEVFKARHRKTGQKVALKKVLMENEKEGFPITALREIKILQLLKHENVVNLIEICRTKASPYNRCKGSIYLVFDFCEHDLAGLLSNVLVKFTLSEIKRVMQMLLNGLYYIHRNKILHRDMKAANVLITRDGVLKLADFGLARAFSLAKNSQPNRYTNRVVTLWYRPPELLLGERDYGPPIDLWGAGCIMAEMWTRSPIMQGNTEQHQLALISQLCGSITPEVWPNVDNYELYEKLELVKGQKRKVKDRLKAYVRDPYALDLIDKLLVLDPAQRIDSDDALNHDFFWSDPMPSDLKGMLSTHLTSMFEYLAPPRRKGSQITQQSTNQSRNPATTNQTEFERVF

Carbonic anhydrase 12 = Carbonic anhydrase 12 (Homo sapiens, UniProt O43570); assay: Inhibition of recombinant human carbonic anhydrase 12 preincubated with enzyme for 15 mins by phenol red dye based stopped flow CO2 hydrase assay
Carbonic anhydrase 12, sequence (O43570 whole entry): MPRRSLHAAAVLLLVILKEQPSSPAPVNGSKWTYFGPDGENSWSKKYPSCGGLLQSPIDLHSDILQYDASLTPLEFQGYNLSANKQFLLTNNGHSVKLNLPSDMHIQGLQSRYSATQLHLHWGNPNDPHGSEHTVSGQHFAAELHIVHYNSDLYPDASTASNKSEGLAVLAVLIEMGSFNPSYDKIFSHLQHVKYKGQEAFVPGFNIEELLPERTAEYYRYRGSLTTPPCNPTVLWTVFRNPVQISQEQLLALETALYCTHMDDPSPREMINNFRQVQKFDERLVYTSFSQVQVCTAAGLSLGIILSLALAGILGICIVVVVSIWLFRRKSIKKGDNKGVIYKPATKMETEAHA

[1] = molecular target: Cyclin-dependent kinase 2/cyclin E1 (Homo sapiens, UniProt P24941); assay: Inhibition of CDK2/cyclin E (unknown origin) expressed in baculovirus infected Sf21 insect cells using histone H1 as substrate in presence of [gamma33P]ATP
Carbonic anhydrase 1 = Carbonic anhydrase 1 (Homo sapiens, UniProt P00915); assay: Inhibition of recombinant human carbonic anhydrase 1 preincubated with enzyme for 15 mins by phenol red dye based stopped flow CO2 hydrase assay
Carbonic anhydrase 1, sequence (P00915 whole entry): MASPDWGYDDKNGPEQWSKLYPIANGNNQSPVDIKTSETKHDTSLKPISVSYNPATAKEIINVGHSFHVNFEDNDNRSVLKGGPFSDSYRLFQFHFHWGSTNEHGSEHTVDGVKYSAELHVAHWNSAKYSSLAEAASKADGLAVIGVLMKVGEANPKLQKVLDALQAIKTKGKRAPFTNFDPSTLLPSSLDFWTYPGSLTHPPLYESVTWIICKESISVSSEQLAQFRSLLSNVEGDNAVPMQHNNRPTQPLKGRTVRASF

Carbonic anhydrase 2 = Carbonic anhydrase 2 (Homo sapiens, UniProt P00918); assay: Inhibition of recombinant human carbonic anhydrase 2 preincubated with enzyme for 15 mins by phenol red dye based stopped flow CO2 hydrase assay

| SMILES | Ki (Carbonic anhydrase 9) | IC50 (CDK9/cyclin T1) | Ki (Carbonic anhydrase 12) | IC50 [1] | Ki (Carbonic anhydrase 1) | Ki (Carbonic anhydrase 2) |
| --- | --- | --- | --- | --- | --- | --- |
| Nc1nn2c(-c3ccc(F)cc3)ccnc2c1/N=N/c1ccc(S(N)(=O)=O)cc1 | 6 nM | > 12500 nM | 31.4 nM | > 12500 nM | 681 nM | 14.5 nM |
| Nc1nn2c(-c3ccc([N+](=O)[O-])cc3)ccnc2c1/N=N/c1ccc(S(N)(=O)=O)cc1 | 67.6 nM | > 12500 nM | 14.4 nM | > 12500 nM | 2120 nM | 35.6 nM |
| Nc1nn2c(-c3cccs3)ccnc2c1/N=N/c1ccc(S(N)(=O)=O)cc1 | 40.1 nM | > 12500 nM | 59 nM | > 12500 nM | 1150 nM | 7.1 nM |
